Test results published in patent US10465854B2, “Temperature-stable paraffin inhibitor compositions” (Ecolab USA Inc., priority 2016, dated 2019).

assay: Pour point observation according to ASTM D-97; format: physicochemical; settings: not given
Excerpt: A number of working examples were composed and tested for flow indicative of solidification point depression (e.g., pour point temperatures). The compositions tested herein are said to “pour or flow” at the indicated temperature when the PIC of each working example, vertically at rest on a substantially horizontal surface the cylindrical container (radius 1 inch, height 2 inches), flows observably within about 10 seconds when tipped to a substantially horizontal position. This amount of flow is known to be sufficient to indicate that the composition is pourable or pumpable for use in the field, where such concentrates are applied to one or more crude oil transportation or storage systems. The flowing samples are said to have a pour point at temperatures where the flow is observed. The pour point is above the solidification temperature for a given sample. The effect on pour point was observed according to ASTM D-97 test method (including storage for a half hour in a freezer set the associated temperature prior to observation for pour or flow).
The effect on pour point was observed according to ASTM D-97 test method (storage for at least one half hour in a freezer set at a specific temperature (e.g., −60° C.)). The specific low Log P molecules, amounts thereof, amounts of PI polymer, with the balance comprising a refined petroleum distillate or solvent such as HAN; and pour point observations according to ASTM D-97 are listed in Table 2 below.
A comparison of pour points was made between control samples having no low Log P molecules and samples including low Log P molecules to determine the total amount of pour point depression.
The relative amounts of pour point depression of PICs having combination nonyl phenol formaldehyde resin and alpha olefin/maleic anhydride (OMAC) copolymer PIs (specifically OMAC amide polymers), were tested by the ASTM D-97 method. A comparison of pour points was made between control samples having no low Log P molecules and samples including low Log P molecules to determine the total amount of pour point depression.
A low Log P ether molecules was tested for pour point depression in various PICs. The 2-methoxy ethanol was tested in various amounts in PICs and in PICs having various amounts of PI polymer (alkyl phenol formaldehyde resin) therein.

Question: For `O=C1CCCO1` [Butryolactone, butyrolactone], which “suitability as pour point depressant in PIC compositions” value (shortened to “suitability as pour point depressant”) is on record?
Answer: showed promise as pour point depressants

Question: For `C1COCCO1` [1,4-dioxane], which “suitability as pour point depressant” value is on record?
Answer: showed promise as pour point depressants

Question: What does the source list for `CO` [Methanol]?
Answer: pour point depressed by: 70 °C; suitability as pour point depressant in PIC compositions: showed promise as pour point depressants

same assay, conditions: compounds of table 1 tested for pour point and freezing point

Question: With `O=C1CCCN1` [2-Pyrollidone, 2-pyrrolidone] as the compound, how does the “suitability as pour point depressant” value read?
Answer: showed promise as pour point depressants

Question: For `CC(O)CO` (stereo not shown) [1,2-propanediol], which “suitability as pour point depressant” value is on record?
Answer: showed promise as pour point depressants

Question: For 2-methoxy ethanol, which “suitability as pour point depressant” value is on record?
Answer: showed promise as pour point depressants

Question: Which “suitability as pour point depressant” value does the source give for `CC(C)O` [Isopropanol] here?
Answer: showed promise as pour point depressants

Question: Which “suitability as pour point depressant” value does the source give for `CN(C)CCO` [dimethylethanolamine] here?
Answer: showed promise as pour point depressants

same assay, conditions: versus the PIC of working example 28

Question: For 2-methoxy ethanol, which “lowered the pour point by” value is on record?
Answer: about 90 °C

assay: LogP value in octanol/water; settings: octanol/water

Question: For `O=C1COCCN1` [3-Ketomorpholine, 3-ketomorpholine], which logP is on record?
Answer: -0.49

Question: With `O=C1CCCN1` [2-Pyrollidone, 2-pyrrolidone] as the compound, how does the logP read?
Answer: -0.18

Question: For `COCC(C)OC(C)=O` (stereo not shown), which logP is on record?
Answer: 0.73

Question: Which logP does the source give for `CNC(=O)NC` here?
Answer: -0.25

Question: For `C1COCCO1` [drawing 23], which logP is on record?
Answer: -0.23

Question: Which logP does the source give for `O=C1CCCCN1` here?
Answer: 0.33

Question: With `O=C1OCCO1` as the compound, how does the logP read?
Answer: 0.01

Question: For `CC1COC(=O)O1` (stereo not shown), which logP is on record?
Answer: 0.37

Question: Which logP does the source give for `CC(C)CO` [Isobutanol] here?
Answer: 0.8

Question: With `CCCCC(CC)CO` (stereo not shown) [2-Ethyl Hexanol, 2-ethyl hexanol] as the compound, how does the logP read?
Answer: 2.87

Question: Which logP does the source give for `CCOCCO` here?
Answer: -0.05

Question: With `CN1CCCC1=O` as the compound, how does the logP read?
Answer: 0.07

Question: With `CN1CCCCC1=O` as the compound, how does the logP read?
Answer: 0.57

Question: With `CO` [Methanol] as the compound, how does the logP read?
Answer: -0.32

same assay, conditions: octanol/water, LogP, Table 7; of the low LogP molecule type

Question: With `O=C1CCCO1` [Butryolactone, butyrolactone] as the compound, how does the logP read?
Answer: -0.59

same assay, conditions: octanol/water, LogP; Table 1

Question: For `CCCCOCCO`, which logP is on record?
Answer: 1.01

Question: Which logP does the source give for `CN(C)CCO` [drawing 17] here?
Answer: -0.29

same assay, conditions: octanol/water; Table 1

Question: Which logP does the source give for `O=C1COCCN1` [3-Ketomorpholine, 3-ketomorpholine] here?
Answer: −0.49

Question: Which logP does the source give for `O=C1CCCN1` [2-Pyrollidone, 2-pyrrolidone] here?
Answer: −0.18

Question: Which logP does the source give for 2-methoxy ethanol here?
Answer: −0.43

Question: Which logP does the source give for `O=C1CCCO1` [drawing 12] here?
Answer: −0.57

Question: With `CCCCC(CC)CO` (stereo not shown) [2-Ethyl Hexanol, 2-ethyl hexanol] as the compound, how does the logP read?
Answer: 2.87

Question: Which logP does the source give for `CO` [Methanol] here?
Answer: −0.32

same assay, conditions: text b150

Question: With 2-methoxy ethanol as the compound, how does the “Log P” value read?
Answer: −0.43
